The inhibition is the drop in the measured response relative to a control, in per cent.

Assay [1] has as its target T1, B1R receptor of the rat (rB1R) (Rattus norvegicus, UniProt P97583).
T1 construct: expressed in transfected cells; host or cells: CHO K1 cells (Chinese hamster ovary), stably transfected
T1 sequence (P97583 1-337): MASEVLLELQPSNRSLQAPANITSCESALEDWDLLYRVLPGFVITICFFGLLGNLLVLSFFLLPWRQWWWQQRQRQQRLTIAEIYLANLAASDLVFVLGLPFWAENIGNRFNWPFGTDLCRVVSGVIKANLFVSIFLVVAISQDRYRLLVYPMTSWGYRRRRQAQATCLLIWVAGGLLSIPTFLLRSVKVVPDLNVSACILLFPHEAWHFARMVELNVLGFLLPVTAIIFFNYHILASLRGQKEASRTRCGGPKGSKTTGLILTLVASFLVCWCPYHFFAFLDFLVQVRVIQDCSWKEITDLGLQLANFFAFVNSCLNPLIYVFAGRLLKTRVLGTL
In words: Functional FLIPR Ca2+ assay on the bradykinin 1 receptor, rat (rB1R CHO K1 cells). Type of assay: cell-based. Conditions: test substance 10 μM; CHO K1 cells transfected with rat B1R gene; agonist Des-Arg9-bradykinin at EC80; % inhibition compared with maximum achievable inhibition; read-out: B1R antagonism, rat [10 μM] % inhibition. The procedure, abridged: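 Stably transfected CHO K1 cells expressing human or rat B1R, Fluo-4-loaded, Ca2+ influx read by FLIPR (peak fluorescence). Compounds (10 μM for % activation) preincubated 10-20 min, then EC80 agonist added: Lys-Des-Arg9-bradykinin for human, Des-Arg9-bradykinin for rat; % inhibition versus maximal inhibition, IC50 from concentration series.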

The target of assay [2] is T2, human B1R receptor (hB1R) (Homo sapiens, UniProt P46663).
T2 construct: expressed in transfected cells; host or cells: CHO K1 cells (Chinese hamster ovary), stably transfected
T2 sequence (P46663 1-353): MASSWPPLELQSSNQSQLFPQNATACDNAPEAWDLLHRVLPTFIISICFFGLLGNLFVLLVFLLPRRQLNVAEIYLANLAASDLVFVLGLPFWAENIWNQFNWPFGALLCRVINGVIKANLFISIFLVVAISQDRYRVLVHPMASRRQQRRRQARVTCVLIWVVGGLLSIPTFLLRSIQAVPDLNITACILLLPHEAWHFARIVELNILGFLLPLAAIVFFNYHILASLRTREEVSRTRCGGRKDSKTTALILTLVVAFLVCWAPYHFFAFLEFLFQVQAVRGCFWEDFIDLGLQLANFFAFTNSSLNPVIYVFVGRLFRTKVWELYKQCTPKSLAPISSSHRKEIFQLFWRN
The assay is described as follows: Functional FLIPR Ca2+ assay on the bradykinin 1 receptor, human (hB1R CHO K1 cells). Type of assay: cell-based. Conditions: test substance 10 μM; CHO K1 cells transfected with human B1R gene; agonist Lys-Des-Arg9-bradykinin at EC80; % inhibition compared with maximum achievable inhibition; read-out: B1R antagonism, human (10 μM] % inhibition. On the procedure:
The agonistic or antagonistic action of substances can be quantified on the bradykinin 1 receptor (B1R) of the human and rat species with ectopically expressing cell lines (CHO K1 cells) and with the aid of a Ca^2+-sensitive dyestuff (Fluo-4) in a fluorescent imaging plate reader (FLIPR). The figure in % activation is based on the Ca^2+ signal after addition of Lys-Des-Arg^9-bradykinin (0.5 nM) or Des-Arg^9-bradykinin (100 nM). Antagonists lead to a suppression of the Ca^2+ inflow after addition of the agonist. % inhibition compared with the maximum achievable inhibition is stated.
The agonistic or antagonistic action of substances can be determined on the bradykinin 1 receptor (B1R) of the human and rat species with the following assay. In accordance with this assay, the Ca^2+ inflow through the channel is quantified with the aid of a Ca^2+-sensitive dyestuff (type Fluo-4, Molecular Probes Europe BV, Leiden, Holland) in a fluorescent imaging plate reader (FLIPR, Molecular Devices, Sunnyvale, USA).
Chinese hamster ovary cells (CHO K1 cells) transfected stably with the human B1R gene (hB1R cells) or the B1R gene of the rat (rB1R cells) are used. For functional studies, these cells are plated out on black 96-well plates with a clear base (BD Biosciences, Heidelberg, Germany or Greiner, Frickenhausen, Germany) in a density of 20,000-35,000 cells/well. The cells are left overnight at 37° C. and 5% CO2 in culture medium (hB1R cells: Nutrient Mixture Ham's F12, Gibco Invitrogen GmbH, Karlsruhe, Germany or DMEM, Sigma-Aldrich, Taufkirchen, Germany; rB1R cells: D-MEM/F12, Gibco Invitrogen GmbH, Karlsruhe, Germany) with 10 vol. % FBS (foetal bovine serum, Gibco Invitrogen GmbH, Karlsruhe, Germany or PAN Biotech GmbH, Aidenbach, Germany). On the following day, the cells are loaded for 60 min at 37° C. with 2.13 μM Fluo-4 (Molecular Probes Europe BV, Leiden, Holland) in HBSS buffer (Hank's buffered saline solution, Gibco Invitrogen GmbH, Karlsruhe, Germany) with 2.5 mM probenecid (Sigma-Aldrich, Taufkirchen, Germany) and 10 mM HEPES (Sigma-Aldrich, Taufkirchen, Germany). The plates are then washed 2× with HBSS buffer, and HBSS buffer which additionally contains 0.1% BSA (bovine serum albumin; Sigma-Aldrich, Taufkirchen, Germany), 5.6 mM glucose and 0.05% gelatine (Merck KgaA, Darmstadt, Germany) is added. After a further incubation of 20 minutes at room temperature, the plates are inserted into the FLIPR for the Ca^2+ measurement.
Alternatively, the plates are washed with buffer A (15 mM HEPES, 80 mM NaCl, 5 mM KCl, 1.2 mM CaCl2, 0.7 mM MgSO4, 2 g/l glucose, 2.5 mM probenecid), buffer A is added and the plates are loaded with 2.5 μM Fluo-4 and 0.025% Pluronic F127 (Sigma-Aldrich, Taufkirchen, Germany). Thereafter, the cells are washed 2× with buffer A and incubated for 30 minutes with buffer A, which additionally contains 0.05% BSA and 0.05% gelatine, at room temperature and thereafter inserted into the FLIPR for the Ca^2+ measurement. The Ca^2+-dependent fluorescence is measured here before and after addition of substances (λex=488 nm, λem=540 nm). Quantification is by measurement of the highest fluorescence intensity (FC, fluorescence counts) over time.
The FLIPR protocol consists of 2 additions of substance. Test substances (10 μM) are first pipetted on to the cells and the Ca^2+ inflow is compared with the control (hB1R: Lys-Des-Arg^9-bradykinin >=50 nM; rB1R: Des-Arg^9-bradykinin 10 μM). This gives the figure in % activation based on the Ca^2+ signal after addition of Lys-Des-Arg^9-bradykinin (>=50 nM) or Des-Arg^9-bradykinin (10 μM). After incubation for 10-20 minutes, Lys-Des-Arg^9-bradykinin (hB1R) or Des-Arg^9-bradykinin (rB1R) in the concentration of the EC80 is applied and the inflow of Ca^2+ is likewise determined. Antagonists lead to a suppression of the Ca^2+ inflow. % inhibition compared with the maximum achievable inhibition is calculated. In order to determine the IC50 value, the substances are added in various concentrations. […]

Structures are written as SMILES.

In the case of `COc1cc(C)c(S(=O)(=O)N2CCCCC2COCC(=O)N2CCc3sccc3C2c2ccccc2)c(C)c1` (stereo not shown) [Example 15, 2-((1-(4-methoxy-2,6-dimethylphenylsulfonyl)piperidin-2-yl)methoxy)-1-(4-phenyl-6,7-dihydrothieno[3,2-c]pyridin-5(4H)-yl)ethanone], the inhibition at 10 µM was found to be 98% in assay [1] and 69% in assay [2].

Turning to `Cc1cc(S(=O)(=O)N2CCCCC2CCC(=O)N2CCc3sccc3C2c2ccccc2)c(C)cc1Cl` (stereo not shown) [Example 16, 3-(1-(4-chloro-2,5-dimethylphenylsulfonyl)piperidin-2-yl)-1-(4-phenyl-6,7-dihydrothieno[3,2-c]pyridin-5(4H)-yl)propan-1-one], the inhibition at 10 µM in assay [1] came out at 81%; in assay [2], 43%.

Consider `O=C(C[C@@H](NS(=O)(=O)c1ccc2ccccc2c1)c1ccccc1)N1CCc2onc(CN3CCCCC3)c2C1` [Example 17, I—N-(3-oxo-1-phenyl-3-(3-(piperidin-1-ylmethyl)-6,7-dihydroisoxazolo[4,5-c]pyridin-5(4H)-yl)propyl)naphthalene-2-sulfonamide], for which the inhibition at 10 µM worked out at 55% in assay [1] and 49% in assay [2].

As for `CCC1c2ccsc2CCN1C(=O)COCCN(C)S(=O)(=O)c1c(C)cc(OC)cc1C` (stereo not shown) [Example 18, N-(2-(2-(4-Ethyl-6,7-dihydrothieno[3,2-c]pyridin-5(4H)-yl)-2-oxoethoxy)ethyl)-4-methoxy-N,2,6-trimethyl benzenesulfonamide], the inhibition at 10 µM in assay [1] came out at 109%; in assay [2] it was 99%.

On to `O=C(CC1CCCCN1S(=O)(=O)c1cccc(C(F)(F)F)c1)N1CCc2sccc2C1c1ccc(F)cc1` (stereo not shown) [Example 19, 1-(4-(4-fluorophenyl)-6,7-dihydrothieno[3,2-c]pyridin-5(4H)-yl)-2-(1-(3-(trifluoromethyl)phenylsulfonyl)piperidin-2-yl)ethanone], for which the inhibition at 10 µM came out at 83% in assay [1] and 35% in assay [2].

Regarding `Cc1ccc(C2c3ccsc3CCN2C(=O)C[C@@H](NS(=O)(=O)c2ccc3ccccc3c2)c2ccccc2)cc1` (stereo partly drawn) [Example 20, N-((1R)-3-oxo-1-phenyl-3-(4-p-tolyl-6,7-dihydrothieno[3,2-c]pyridin-5(4H)-yl)propyl)naphthalene-2-sulfonamide], the inhibition at 10 µM amounted to 96% in assay [1] and 11% in assay [2].

In the case of `O=C(C[C@@H](NS(=O)(=O)c1ccc2ccccc2c1)c1ccccc1)N1CCc2sccc2C1c1ccc(F)cc1` (stereo partly drawn) [Example 21, N-((1R)-3-(4-(4-fluorophenyl)-6,7-dihydrothieno[3,2-c]pyridin-5(4H)-yl)-3-oxo-1-phenylpropyl)naphthalene-2-sulfonamide], the values for the inhibition at 10 µM in assay [1] and in assay [2] were 70% and 34%, respectively.

For `COc1cc(C)c(S(=O)(=O)N2CCCCC2COCC(=O)N2CCc3sccc3C2c2ccc(F)cc2)c(C)c1` (stereo not shown) [Example 22, 1-(4-(4-fluorophenyl)-6,7-dihydrothieno[3,2-c]pyridin-5(4H)-yl)-2-((1-(4-methoxy-2,6-dimethylphenylsulfonyl)piperidin-2-yl)methoxy)ethanone], the inhibition at 10 µM came to 100% in assay [1] and 96% in assay [2].

For the molecule `CCC1c2ccsc2CCN1C(=O)CCCC1CCCCN1S(=O)(=O)c1c(C)cc(OC)cc1C` (stereo not shown) [Example 23, 1-(4-Ethyl-6,7-dihydrothieno[3,2-c]pyridin-5(4H)-yl)-4-(1-(4-methoxy-2,6-dimethylphenylsulfonyl)piperidin-2-yl)butan-1-one], the inhibition at 10 µM was 105% in assay [1] and 91% in assay [2].

With `COc1cc(C)c(S(=O)(=O)N2CCCCC2COCC(=O)N2CCc3onc(-c4ccc(Cl)cc4)c3C2)c(C)c1` (stereo not shown) [Example 24, 1-(3-(4-chlorophenyl)-6,7-dihydroisoxazolo[4,5-c]pyridin-5(4H)-yl)-2-((1-(4-methoxy-2,6-dimethylphenylsulfonyl)piperidin-2-yl)methoxy)ethanone], the inhibition at 10 µM in assay [1] is 100%; in assay [2], 73%.

In the case of `COc1cc(C)c(S(=O)(=O)N2CCCCC2COCC(=O)N2CCc3onc(-c4ccc(F)cc4)c3C2)c(C)c1` (stereo not shown) [Example 25, 1-(3-(4-fluorophenyl)-6,7-dihydroisoxazolo[4,5-c]pyridin-5(4H)-yl)-2-((1-(4-methoxy-2,6-dimethylphenylsulfonyl)piperidin-2-yl)methoxy)ethanone], the inhibition at 10 µM in assay [1] amounted to 103%; in assay [2] it was 86%.

As to `O=C(C[C@@H](NS(=O)(=O)c1ccc2ccccc2c1)c1ccccc1)N1CCc2sc(CN3CCCCC3)cc2C1` [Example 26, (R)—N-(3-Oxo-1-phenyl-3-(2-(piperidin-1-ylmethyl)-6,7-dihydrothieno[3,2-c]pyridin-5(4H)-yl)propyl)naphthalene-2-sulfonamide], the figures for the inhibition at 10 µM in assay [1] and in assay [2] were 101% and 97%, respectively.

As for `COc1cc(C)c(S(=O)(=O)N2CCCCC2COCC(=O)N2CCc3sc(CN4CCCCC4)cc3C2)c(C)c1` (stereo not shown) [Example 27, 2-((1-(4-Methoxy-2,6-dimethylphenylsulfonyl)piperidin-2-yl)methoxy)-1-(2-(piperidin-1-ylmethyl)-6,7-dihydrothieno[3,2-c]pyridin-5(4H)-yl)ethanone], the inhibition at 10 µM in assay [1] is 106%; in assay [2], 100%.

As to `COc1cc(C)c(S(=O)(=O)N(C)CCOCC(=O)N2CCc3sc(CN4CCCCC4)cc3C2)c(C)c1` [Example 28, 4-Methoxy-N,2,6-trimethyl-N-(2-(2-oxo-2-(2-(piperidin-1-yl-methyl)-6,7-dihydrothieno[3,2-c]pyridin-5(4H)-yl)ethoxy)ethyl)benzene-sulfonamide], the results for the inhibition at 10 µM in assay [1] and in assay [2] were 109% and 100%, respectively.

Source of the values: patent US8268814B2, “Substituted sulfonamide compounds” (Gruenenthal GmbH, priority 2008, dated 2012).
